# In ChEMBL document CHEMBL5725943, “Isoxazole derivatives as FXR agonists and methods of use therof” (2018):
# Molecular target: T1, Bile acid receptor (Homo sapiens, UniProt Q96RI1)
# T1 sequence (Q96RI1 whole entry): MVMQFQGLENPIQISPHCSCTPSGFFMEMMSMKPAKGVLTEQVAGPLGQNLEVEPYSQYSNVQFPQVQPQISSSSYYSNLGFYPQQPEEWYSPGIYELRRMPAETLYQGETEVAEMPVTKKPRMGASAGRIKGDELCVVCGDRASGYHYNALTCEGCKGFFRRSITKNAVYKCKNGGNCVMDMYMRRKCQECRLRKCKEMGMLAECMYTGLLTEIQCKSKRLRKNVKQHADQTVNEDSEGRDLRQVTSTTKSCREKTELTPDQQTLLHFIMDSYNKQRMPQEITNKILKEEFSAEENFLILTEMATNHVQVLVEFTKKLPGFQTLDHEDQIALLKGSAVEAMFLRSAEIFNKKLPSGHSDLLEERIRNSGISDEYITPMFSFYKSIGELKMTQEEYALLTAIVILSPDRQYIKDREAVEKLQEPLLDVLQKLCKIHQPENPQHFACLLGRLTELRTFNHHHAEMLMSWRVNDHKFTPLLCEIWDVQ
# Assay: FXR Reporter Assay kit purchased from Indigo Bioscience (Catalogue number: IB00601) to determine the potency and efficacy of compound developed by Enanta that can induce FXR activation. The principle application of this reporter assay system is to quantify functional activity of human FXR. The assay utilizes non-human mammalian cells, CHO (Chinese hamster ovary) cells engineered to express human NR1H4 protein (referred to as FXR). Reporter cells also incorporate the cDNA encoding beetle luciferase which catalyzes the substrates and yields photon emission. Luminescence intensity of the reaction is quantified using a plate-reading luminometer, Envision. Reporter Cells include the luciferase reporter gene functionally linked to an FXR responsive promoter. Thus, quantifying changes in luciferase expression in the treated reporter cells provides a sensitive surrogate measure of the changes in FXR activity. […] The assay is according to the manufacturer's instructions. In brief, the assay was performed in white, 96 well plates using final volume of 100 μl containing cells with different doses of compounds. Retrieve Reporter Cells from −80° C. storage. Perform a rapid thaw of the frozen cells by transferring a 10 ml volume of 37° C. cell recovery medium into the tube of frozen cells. Recap the tube of Reporter Cells and immediately place it in a 37° C. water bath for 5-10 minutes. […]
# Format: cell-based
structure (smiles),measurement,value
CN(Cc1ccc(C(=O)NS(=O)(=O)N(C)C)cc1)c1ccc(OCc2c(-c3c(Cl)cccc3Cl)noc2C2CC2)nc1C(F)(F)F,EC50,< 100 nM
